Patent US11414404B2, “Compounds for the treatment of BRAF-associated diseases and disorders” (Array BioPharma Inc., priority 2019, dated 2022)
Counter-ions that a name gives are not always drawn. Like-named read-outs stand apart in the source and are kept apart here.

Experiments:
P-gp (MDR1) = P-gp (MDR1) (Homo sapiens (Human), UniProt P08183); assay: MDR1 LLC-PK1 permeability assay: efflux ratio; conditions: pig, LLC-PK1
Description: (§1) Both LLC-PK1 and MDR1 transfected LLC-PK1 cells were cultured and plated according to manufacturer's recommendations with the exception that the passage media contained only 2% fetal bovine serum to extend passage time out to seven days.
(§2) Both positive and negative controls were used to assess functionality of P-gp or BCRP efflux in the assays. […] Final organic concentration in the assay was 1%. All dosing solutions contained 10 μM lucifer yellow to monitor LLC-PK1 or MDCKII cell monolayer integrity.
(§3) For the apical to basolateral determination (A to B), 75 μL of the test article in transport buffer were added to the apical side of the individual transwells and 250 μL of basolateral media, without compound or lucifer yellow, were added to each well. For the basolateral to apical determination (B to A), 250 μL of test article in transport buffer were added to each well and 75 μL transport buffer, without compound or lucifer yellow, were added to each transwell. All tests were performed in triplicate, and each compound was tested for both apical to basolateral and basolateral to apical transport. The plates were incubated for 2 hours on a Lab-Line Instruments Titer Orbital Shaker (VWR, West Chester, Pa.) at 50 rpm and 37° C. with 5% CO2. All culture plates were removed from the incubator and 50 μL of media were removed from the apical and basolateral portion of each well and added to 150 μL of 1 μM labetalol in 2:1 acetonitrile (acetonitrile): H2O, v/v.
(§4) These values were accepted when found to be below 2% for apical to basolateral and 5% basolateral to apical flux across the MDR1-transfected LLC-PK1 or BCRP-transfected MDCKII cell monolayers. The plates were sealed and the contents of each well analyzed by LC-MS/MS. The compound concentrations were determined from the ratio of the peak areas of the compound to the internal standard (labetalol) in comparison to the dosing solution.
(§5) The LC-MS/MS system was comprised of an HTS-PAL autosampler (Leap Technologies, Carrboro, N.C.), an HP1200 HPLC (Agilent, Palo Alto, Calif.), and a MDS Sciex 4000 Q Trap system (Applied Biosystems, Foster City, Calif.). […] The total run time, including re-equilibration, for a single injection was 1.2 minutes. Mass spectrometric detection of the analytes was accomplished using the ion spray positive mode.
(§6) An efflux ratio is calculated from the mean apical to basolateral (A−B) Papp data and basolateral to apical (B−A) Papp data: Efflux ratio=Papp(B−A)/Papp(A−B)

[1] = MDR1 LLC-PK1 and BCRP MDCKII permeability assay: permeability coefficient (Papp)
Description: as §1
(§7) BCRP transfected MDCKII cells were cultured and plated according to manufacturer's recommendations. Assay conditions included with and without the BCRP-specific inhibitor, K0143, at a concentration of 0.3 μM to ascertain the contribution of BCRP to the efflux value of the test compound.
as §2, §3, §4, §5
where Cd, V, t and C0 are the detected concentration (μM), the volume on the dosing side (mL); the incubation time (s) and the initial dosing concentration (μM), respectively. The calculations for Papp were made for each replicate and then averaged.

[2] = target: full-length FLAG-tagged B-Raf(V600E) (Homo sapiens (Human), UniProt P15056, V600E); assay: BRAF V600E enzyme assay (TR-FRET competitive displacement of fluorescent tracer); type: binding
Text: A competitive displacement assay was configured for B-Raf that monitors the amount of a fluorescently-tagged “tracer” bound to B-Raf via TR-FRET from an anti-tag Eu-labeled antibody also bound to B-Raf.
[formula] • where: • Xmax Average Uninhibited Controls • Xmin Average Background
A 4-parameter logistic model was the fit to the POC data for each compound.

BCRP = BCRP (Homo sapiens (Human), UniProt Q9UNQ0); assay: BCRP MDCKII permeability assay: efflux ratio; conditions: dog
Description: as §7, §2, §3, §4, §5, §6

[3] = averaged IC50, 60 min at ambient temperature, 11-point dosing, top dose 10 μM

Sequence of BCRP (Q9UNQ0 whole entry, species assumed): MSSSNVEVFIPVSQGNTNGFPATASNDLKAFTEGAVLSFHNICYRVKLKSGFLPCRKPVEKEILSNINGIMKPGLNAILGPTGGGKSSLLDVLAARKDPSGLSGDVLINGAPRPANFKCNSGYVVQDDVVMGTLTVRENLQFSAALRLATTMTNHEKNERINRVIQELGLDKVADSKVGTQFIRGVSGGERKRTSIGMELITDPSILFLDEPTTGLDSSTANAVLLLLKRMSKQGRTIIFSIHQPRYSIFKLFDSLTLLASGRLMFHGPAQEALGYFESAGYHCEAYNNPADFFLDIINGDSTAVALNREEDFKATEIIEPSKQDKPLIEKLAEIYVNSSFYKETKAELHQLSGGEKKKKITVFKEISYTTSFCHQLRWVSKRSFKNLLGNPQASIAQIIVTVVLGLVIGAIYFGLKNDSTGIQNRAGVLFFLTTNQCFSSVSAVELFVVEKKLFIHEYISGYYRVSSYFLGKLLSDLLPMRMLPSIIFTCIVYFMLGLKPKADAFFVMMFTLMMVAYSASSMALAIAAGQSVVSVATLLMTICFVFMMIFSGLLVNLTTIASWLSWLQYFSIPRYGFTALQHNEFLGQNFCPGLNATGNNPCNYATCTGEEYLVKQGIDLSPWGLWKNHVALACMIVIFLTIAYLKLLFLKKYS
Sequence of P-gp (MDR1) (P08183 whole entry, species assumed): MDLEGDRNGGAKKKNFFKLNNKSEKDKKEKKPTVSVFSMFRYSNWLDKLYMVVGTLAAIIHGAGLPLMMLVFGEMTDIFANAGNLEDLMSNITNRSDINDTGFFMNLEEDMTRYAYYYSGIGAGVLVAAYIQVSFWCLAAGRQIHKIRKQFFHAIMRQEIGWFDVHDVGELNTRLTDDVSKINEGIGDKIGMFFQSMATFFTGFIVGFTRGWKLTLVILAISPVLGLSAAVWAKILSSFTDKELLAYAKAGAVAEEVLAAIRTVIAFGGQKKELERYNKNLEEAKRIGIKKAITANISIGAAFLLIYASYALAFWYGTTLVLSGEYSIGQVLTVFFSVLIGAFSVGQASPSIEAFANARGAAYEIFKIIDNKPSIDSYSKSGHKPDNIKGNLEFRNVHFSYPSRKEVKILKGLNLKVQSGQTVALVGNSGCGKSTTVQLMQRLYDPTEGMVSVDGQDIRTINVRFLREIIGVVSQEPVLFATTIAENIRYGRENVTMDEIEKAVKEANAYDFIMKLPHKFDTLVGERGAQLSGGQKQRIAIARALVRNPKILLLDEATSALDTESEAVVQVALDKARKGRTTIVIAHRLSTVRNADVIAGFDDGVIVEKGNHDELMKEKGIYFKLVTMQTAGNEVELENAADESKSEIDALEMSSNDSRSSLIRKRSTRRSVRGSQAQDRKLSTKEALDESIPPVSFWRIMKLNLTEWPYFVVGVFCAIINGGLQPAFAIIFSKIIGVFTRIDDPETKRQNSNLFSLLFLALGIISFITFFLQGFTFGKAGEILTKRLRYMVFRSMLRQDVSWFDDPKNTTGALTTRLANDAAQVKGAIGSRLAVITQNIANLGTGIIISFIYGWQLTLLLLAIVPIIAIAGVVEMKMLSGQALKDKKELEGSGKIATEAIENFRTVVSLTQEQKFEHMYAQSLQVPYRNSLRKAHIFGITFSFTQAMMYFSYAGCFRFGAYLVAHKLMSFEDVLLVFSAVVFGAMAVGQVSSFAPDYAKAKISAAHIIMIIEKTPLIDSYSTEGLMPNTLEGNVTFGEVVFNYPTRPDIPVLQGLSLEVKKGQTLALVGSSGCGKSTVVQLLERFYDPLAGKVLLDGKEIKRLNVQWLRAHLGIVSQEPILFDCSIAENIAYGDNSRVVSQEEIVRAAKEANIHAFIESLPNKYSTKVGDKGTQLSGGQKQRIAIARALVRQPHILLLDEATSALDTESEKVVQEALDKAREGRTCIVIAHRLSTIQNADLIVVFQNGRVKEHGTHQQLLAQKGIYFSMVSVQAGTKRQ
Sequence of full-length FLAG-tagged B-Raf(V600E) (P15056 whole entry V600E): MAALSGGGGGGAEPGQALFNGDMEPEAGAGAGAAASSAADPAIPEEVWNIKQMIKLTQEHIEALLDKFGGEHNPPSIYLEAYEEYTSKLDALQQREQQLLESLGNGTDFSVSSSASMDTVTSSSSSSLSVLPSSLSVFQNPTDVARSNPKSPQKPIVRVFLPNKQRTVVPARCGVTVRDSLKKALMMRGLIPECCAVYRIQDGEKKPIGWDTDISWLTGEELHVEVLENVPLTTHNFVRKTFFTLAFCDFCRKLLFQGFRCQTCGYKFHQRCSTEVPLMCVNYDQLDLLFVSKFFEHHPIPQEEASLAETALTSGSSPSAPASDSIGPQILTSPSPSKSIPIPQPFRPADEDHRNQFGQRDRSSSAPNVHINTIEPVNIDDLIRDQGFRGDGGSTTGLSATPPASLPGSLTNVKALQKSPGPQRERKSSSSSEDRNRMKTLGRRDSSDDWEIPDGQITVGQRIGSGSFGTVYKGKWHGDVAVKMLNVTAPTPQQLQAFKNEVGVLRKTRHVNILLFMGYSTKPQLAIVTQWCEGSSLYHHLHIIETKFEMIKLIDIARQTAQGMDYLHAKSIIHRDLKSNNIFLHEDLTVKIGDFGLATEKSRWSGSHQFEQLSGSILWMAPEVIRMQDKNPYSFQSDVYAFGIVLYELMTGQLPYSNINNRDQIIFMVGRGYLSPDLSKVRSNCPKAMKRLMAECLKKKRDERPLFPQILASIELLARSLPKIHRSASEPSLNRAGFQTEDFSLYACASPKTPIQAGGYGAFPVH

| efflux ratio at 2 h, 1 µM (P-gp (MDR1)) | Papp at 2 h, 1 µM [1] [×10⁻⁶ cm/s] | IC50 [2, 3] [nM] | efflux ratio at 2 h, 1 µM (BCRP) | IC50 [2] [nM] | Compound |
| --- | --- | --- | --- | --- | --- |
| 3.92 | 30.1 | 14.2 | 18.6 |  | Cc1c(Nc2c(F)ccc(NS(=O)(=O)CCCF)c2F)ccc2ncn(C)c(=O)c12 [Example 2, N-(3-((3,5-dimethyl-4-oxo-3,4-dihydroquinazolin-6-yl)amino)-2,4-difluorophenyl)-3-fluoropropane-1-sulfonamide] |
| 1.37 | 25.8 | 70.5 | 0.87 |  | CCCS(=O)(=O)Nc1cccc(Nc2ccc3ncn(C)c(=O)c3c2C)c1Cl [Example 3, N-(2-chloro-3-((3,5-dimethyl-4-oxo-3,4-dihydroquinazolin-6-yl)amino)phenyl)propane-1-sulfonamide] |
| 2.24 | 26.7 | 6.25 | 8.33 |  | CCCS(=O)(=O)Nc1cc(F)c(F)c(Nc2ccc3ncn(C)c(=O)c3c2C)c1F [Example 5, N-(3-((3,5-dimethyl-4-oxo-3,4-dihydroquinazolin-6-yl)amino)-2,4,5-trifluorophenyl)propane-1-sulfonamide] |
| 4.68 | 22.2 | 1.75 | 25.2 |  | Cc1c(Nc2c(F)c(F)cc(NS(=O)(=O)CCCF)c2F)ccc2ncn(C)c(=O)c12 [Example 6, N-(3-((3,5-dimethyl-4-oxo-3,4-dihydroquinazolin-6-yl)amino)-2,4,5-trifluorophenyl)-3-fluoropropane-1-sulfonamide] |
| 1.61 | 27.5 | 1.45 | 11.2 |  | Cc1c(Nc2c(F)c(F)cc(NS(=O)(=O)CCCF)c2Cl)ccc2ncn(C)c(=O)c12 [Example 8, N-(2-chloro-3-((3,5-dimethyl-4-oxo-3,4-dihydroquinazolin-6-yl)amino)-4,5-difluorophenyl)-3-fluoropropane-1-sulfonamide] |
| 1.65 | 28.6 | 16.1 | 2.35 |  | CCCS(=O)(=O)Nc1cc(F)cc(Nc2ccc3ncn(C)c(=O)c3c2C)c1F [Example 11, N-(3-((3,5-dimethyl-4-oxo-3,4-dihydroquinazolin-6-yl)amino)-2,5-difluorophenyl)propane-1-sulfonamide] |
| 0.93 | 27 | 9.75 | 1.13 |  | CCCS(=O)(=O)Nc1cc(F)cc(Nc2ccc3ncn(C)c(=O)c3c2C)c1Cl [Example 12, N-(2-chloro-3-((3,5-dimethyl-4-oxo-3,4-dihydroquinazolin-6-yl)amino)-5-fluorophenyl)propane-1-sulfonamide] |
| 1.35 | 24.3 | 4.6 | 1.51 |  | CCCS(=O)(=O)Nc1cc(Cl)cc(Nc2ccc3ncn(C)c(=O)c3c2C)c1F [Example 13, N-(5-chloro-3-((3,5-dimethyl-4-oxo-3,4-dihydroquinazolin-6-yl)amino)-2-fluorophenyl)propane-1-sulfonamide] |
| 1.38 | 26.5 | 13.9 | 1.08 |  | CCCS(=O)(=O)Nc1ccc(Cl)c(Nc2ccc3ncn(C)c(=O)c3c2C)c1Cl [Example 14, N-(2,4-dichloro-3-((3,5-dimethyl-4-oxo-3,4-dihydroquinazolin-6-yl)amino)phenyl)propane-1-sulfonamide] |
| 1.87 | 24.1 | 4.55 | 4.5 |  | CCCS(=O)(=O)Nc1ncc(Cl)c(Nc2ccc3ncn(C)c(=O)c3c2C)c1Cl [Example 15, N-(3,5-dichloro-4-((3,5-dimethyl-4-oxo-3,4-dihydroquinazolin-6-yl)amino)pyridin-2-yl)propane-1-sulfonamide] |
| 4.76 | 21.3 | 17 | 20.3 |  | CCCS(=O)(=O)Nc1ncc(F)c(Nc2ccc3ncn(C)c(=O)c3c2C)c1F [Example 16, N-(4-((3,5-dimethyl-4-oxo-3,4-dihydroquinazolin-6-yl)amino)-3,5-difluoropyridin-2-yl)propane-1-sulfonamide] |
| 5.07 | 6.65 | 9.7 | 25.3 |  | Cc1c(Nc2c(F)cnc(NS(=O)(=O)CCCF)c2F)ccc2ncn(C)c(=O)c12 [Example 17, N-(4-((3,5-dimethyl-4-oxo-3,4-dihydroquinazolin-6-yl)amino)-3,5-difluoropyridin-2-yl)-3-fluoropropane-1-sulfonamide] |
| 1.52 | 27.9 | 7.85 | 10.4 |  | CCCS(=O)(=O)Nc1ncc(F)c(Nc2ccc3ncn(C)c(=O)c3c2C)c1Cl [Example 18, N-(3-chloro-4-((3,5-dimethyl-4-oxo-3,4-dihydroquinazolin-6-yl)amino)-5-fluoropyridin-2-yl)propane-1-sulfonamide] |
| 3.24 | 15.9 | 6.2 | 21.1 |  | Cc1c(Nc2c(F)cnc(NS(=O)(=O)CCCF)c2Cl)ccc2ncn(C)c(=O)c12 [Example 19, N-(3-chloro-4-((3,5-dimethyl-4-oxo-3,4-dihydroquinazolin-6-yl)amino)-5-fluoropyridin-2-yl)-3-fluoropropane-1-sulfonamide] |
| 1.86 | 32.9 | 0.7 | 7.43 |  | Cc1c(Nc2c(F)ccc(NS(=O)(=O)c3ccco3)c2Cl)ccc2ncn(C)c(=O)c12 [Example 20, N-(2-chloro-3-((3,5-dimethyl-4-oxo-3,4-dihydroquinazolin-6-yl)amino)-4-fluorophenyl)furan-2-sulfonamide] |
| 1.22 | 19.2 | 34.7 | 0.77 |  | Cc1c(Nc2c(F)ccc(NS(=O)(=O)N3CCCC3)c2Cl)ccc2ncn(C)c(=O)c12 [Example 21, N-(2-chloro-3-((3,5-dimethyl-4-oxo-3,4-dihydroquinazolin-6-yl)amino)-4-fluorophenyl)pyrrolidine-1-sulfonamide] |
| 1.63 | 34.3 | 13.7 | 1.49 |  | Cc1c(Nc2c(F)ccc(NS(=O)(=O)N3CC[C@@H](F)C3)c2Cl)ccc2ncn(C)c(=O)c12 [Example 22, (R)—N-(2-chloro-3-((3,5-dimethyl-4-oxo-3,4-dihydroquinazolin-6-yl)amino)-4-fluorophenyl)-3-fluoropyrrolidine-1-sulfonamide] |
|  | 39.5 |  |  |  | [2H]C([2H])([2H])n1cnc2ccc(Nc3c(F)ccc(NS(=O)(=O)CCCF)c3Cl)c(C)c2c1=O [Example 23, N-(2-chloro-4-fluoro-3-((5-methyl-3-(methyl-d3)-4-oxo-3,4-dihydroquinazolin-6-yl)amino)-phenyl)-3-fluoropropane-1-sulfonamide] |
| 1.59 | 25.6 |  | 1.18 | 9.05 | [2H]C([2H])([2H])n1cnc2ccc(Nc3c(F)ccc(NS(=O)(=O)CCC)c3Cl)c(C)c2c1=O [Example 24, N-(2-chloro-4-fluoro-3-((5-methyl-3-(methyl-d3)-4-oxo-3,4-dihydroquinazolin-6-yl)amino)phenyl)propane-1-sulfonamide] |
| 1.82 | 22.1 | 0.34 | 1.8 |  | Cc1c(Nc2c(F)ccc(NS(=O)(=O)c3cc(F)ccc3F)c2Cl)ccc2ncn(C)c(=O)c12 [Example 25, N-(2-chloro-3-((3,5-dimethyl-4-oxo-3,4-dihydroquinazolin-6-yl)amino)-4-fluorophenyl)-2,5-difluorobenzenesulfonamide] |
| 2.04 | 30.2 | 49.2 | 6.46 |  | Cc1c(Nc2c(F)ccc(NS(=O)(=O)c3ccccn3)c2Cl)ccc2ncn(C)c(=O)c12 [Example 26, N-(2-chloro-3-((3,5-dimethyl-4-oxo-3,4-dihydroquinazolin-6-yl)amino)-4-fluorophenyl)pyridine-2-sulfonamide] |
| 2.81 |  | 12.9 | 3.14 |  | Cc1c(Oc2c(F)ccc(NS(=O)(=O)CCCF)c2F)ccc2ncn(C)c(=O)c12 [Example 56, N-(3-((3,5-dimethyl-4-oxo-3,4-dihydroquinazolin-6-yl)oxy)-2,4-difluorophenyl)-3-fluoropropane-1-sulfonamide] |
| 0.91 |  | 96 | 2.08 |  | CCCS(=O)(=O)Nc1nccc(Oc2ccc3ncn(C)c(=O)c3c2C)c1Cl [Example 57, N-(3-chloro-4-((3,5-dimethyl-4-oxo-3,4-dihydroquinazolin-6-yl)oxy)pyridin-2-yl)propane-1-sulfonamide] |

| Compound | efflux ratio at 2 h, 1 µM (P-gp (MDR1)) | Papp at 2 h, 1 µM [1] [×10⁻⁶ cm/s] | IC50 [2, 3] [nM] | efflux ratio at 2 h, 1 µM (BCRP) | IC50 [2] [nM] |
| --- | --- | --- | --- | --- | --- |
| Cc1c(Nc2c(F)ccc(NS(=O)(=O)CCCF)c2Cl)ccc2ncn(C)c(=O)c12 [Example 10, N-(2-chloro-3-((3,5-dimethyl-4-oxo-3,4-dihydroquinazolin-6-yl)amino)-4-fluorophenyl)-3-fluoropropane-1-sulfonamide] |  | 41 |  |  |  |
| CCCS(=O)(=O)Nc1ccc(F)c(Nc2ccc3ncn(C(C)C)c(=O)c3c2C)c1Cl [Example 36, N-(2-chloro-4-fluoro-3-((3-isopropyl-5-methyl-4-oxo-3,4-dihydroquinazolin-6-yl)amino)phenyl)propane-1-sulfonamide trifluoroacetate] | 1.17 |  | 26.4 | 1.22 |  |
